This note sets out measurements from US4350754A, “Blocked development restrainers” (Polaroid Corporation, priority 1981, dated 1982).

Structures are written as SMILES.

A short description of the first data set: Release kinetics in solution: t1/2, time for one half of the molecule to cleave and release the azole moiety. The class given is physicochemical. The conditions noted are these: 1×10^-4 molar in 30% acetonitrile/0.25 N aqueous KOH, 22°±0.1° C.; release of azole moiety. From the text: The release kinetics in solution of the compounds of the invention vary over a wide range.
*rate of hydrolysis approximates rate of release
**measured in 50% ethanol/water solution
***solution was 0.022N in KOH
`Cn1c(=O)[nH]cc(CSc2nnnn2-c2ccc(O)cc2)c1=O` [Compound XI] returned a t1/2 of 4.0 s. Regarding `O=c1[nH]cc(CSc2ncccn2)c(=O)[nH]1` [Compound XVIII], the t1/2 stood at 35.9 s. Compound `O=c1[nH]cc(CSc2ncnc3[nH]cnc23)c(=O)[nH]1` [Compound XVII] yielded a t1/2 of 77.8 s. Compound `CC(=NO)c1ccc(-n2nnnc2SCc2c[nH]c(=O)n(C)c2=O)cc1` [Compound XXVI] yielded a t1/2 of 0.87 s. On the same count and under the same terms, the value for `CC(=O)n1c(=O)[nH]cc(Cn2nnn(-c3ccccc3)c2=S)c1=O` [Compound XXXI] was 911 s; that for `O=c1[nH]cc(Cn2nc(-c3ccccc3)oc2=S)c(=O)[nH]1` [Compound X] was 1080 s. `Cn1c(=O)[nH]cc(CSc2nnnn2-c2ccccc2)c1=O` [II] displayed a t1/2 of 0.81 s. Same read-out and setting: under `Cn1c(=O)[nH]cc(Cn2nnn(-c3ccccc3)c2=S)c1=O` [VIII] stands 1512 s; under `O=c1[nH]cc(Cn2nnn(-c3ccccc3)c2=S)c(=O)[nH]1` [VII], 900 s; under `O=C(c1ccccc1)n1c(=O)[nH]cc(CSc2nnnn2-c2ccccc2)c1=O` [XII], 31.2 s. Regarding `O=c1[nH]cc(Cn2nc(-c3cccs3)oc2=S)c(=O)[nH]1` [XIV], the t1/2 is 4320 s.

The data set is the same for the next values; noted with them: 30% acetonitrile/0.25 N aqueous KOH, 22° C.; rate of hydrolysis approximates rate of release.
For `CC(=O)Oc1ccc(-n2nnnc2SCc2c[nH]c(=O)n(C)c2=O)cc1` [V], the t1/2 was 1.8 to 4.0 s.

Staying with this data set, now noted: hydrolysis; 30% acetonitrile/0.25 N aqueous KOH, 22° C.
On to `CC(=O)Oc1ccc(-n2nnnc2SCc2c[nH]c(=O)[nH]c2=O)cc1` [Compound XX], for which the “t1/2 (hydrolysis)” value stood at 2.5 s.

The same data set, now with this note: measured in 50% ethanol/water solution; 22° C.
In turn, `Cc1ccc(Nc2nnc([Se]Cc3c[nH]c(=O)[nH]c3=O)[se]2)cc1` [Compound XIX] displayed a t1/2 of 48.8 s.
